The target of one assay is Photosystem II protein D1 (Spinacia oleracea, UniProt P69560). Nature of the assay: Inhibition of photosynthetic electron transport at the PSII level in intact chloroplasts from Spinacia oleracea (spinach) leaves assessed as inhibition of in vitro activity by Hill reaction assay.
Settings: not given
With `Cc1[nH]nc(C(=O)NC2CC2)c1C(=O)O`, the pIC50 (in general, −log10 of the IC50, conventionally taken in molar units) was below 1.

Take `Cc1c(C(=O)O)c(C(=O)NC(C)(C)C)nn1C(C)(C)C`: the pIC50 was below 1.

The same assay, now with this note: read-out: IC50.
For the molecule `Cc1onc(C(=O)NC2CC2)c1C(=O)O`, the IC50 was 100 µM.

As for `Cc1[nH]nc(C(=O)NC2CC2)c1C(=O)O`, the IC50 was above 100000 µM.

With `Cc1c(C(=O)O)c(C(=O)NC2CC2)nn1C`, the IC50 amounted to 1190 µM.

As for `Cc1onc(C(=O)NC(C)(C)C)c1C(=O)O`, the IC50 stood at 290 µM.

As to `Cc1c(C(=O)O)c(C(=O)NC(C)(C)C)nn1C`, the IC50 stood at 670 µM.

In the case of `Cc1c(C(=O)O)c(C(=O)NC(C)(C)C)nn1-c1ccccc1`, the IC50 turned out to be 7600 µM.

For the molecule `Cc1c(C(=O)O)c(C(=O)NC(C)(C)C)nn1-c1ccc(Cl)cc1`, the IC50 worked out at 950 µM.

Regarding `Cc1c(C(=O)O)c(C(=O)NC(C)(C)C)nn1-c1c(Cl)cc(C(F)(F)F)cc1Cl`, the IC50 was 1040 µM.

As for `Cc1c(C(=O)O)c(C(=O)NC(C)(C)C)nn1C(C)(C)C`, the IC50 was above 100000 µM.

As for `Cc1c(C(=O)O)c(C(=O)NC2CC2)nn1C(C)(C)C`, the IC50 was 68000 µM.

For the molecule `Cc1c(C(=O)O)c(C(=O)NC2CC2)nn1-c1ccccc1`, the IC50 came to 22500 µM.

For `Cc1c(C(=O)O)c(C(=O)NC2CC2)nn1-c1ccc(Cl)cc1`, the IC50 is 370 µM.

For the molecule `Cc1c(C(=O)O)c(C(=O)NC2CC2)nn1-c1c(Cl)cc(C(F)(F)F)cc1Cl`, the IC50 is 12200 µM.

Take `O=c1sc(Nc2cccc(C(F)(F)F)c2)nc2[nH]ncc12`: the IC50 amounted to 33.2 µM.

Consider `O=c1sc(Nc2ccc(Br)cc2)nc2[nH]ncc12`, for which the IC50 is 28.5 µM.

Consider `O=c1sc(Nc2ccc(Cl)cc2)nc2[nH]ncc12`, for which the IC50 amounted to 38.5 µM.

Regarding `O=c1sc(Nc2cccc(Cl)c2)nc2[nH]ncc12`, the IC50 was determined as 48 µM.

For the molecule `O=c1sc(Nc2ccccc2Cl)nc2[nH]ncc12`, the IC50 was determined as 47.8 µM.

As to `O=c1sc(Nc2ccc([N+](=O)[O-])cc2)nc2[nH]ncc12`, the IC50 is 1060 µM.

Consider `CCNc1nc2[nH]ncc2c(=O)s1`, for which the IC50 was found to be 335 µM.

With `CCCCNc1nc2[nH]ncc2c(=O)s1`, the IC50 is 211 µM.

`O=c1sc(NCc2ccccc2)nc2[nH]ncc12`: the IC50 is 10.8 µM.

Take `O=c1sc(NC2CCCCC2)nc2[nH]ncc12`: the IC50 was determined as 66.5 µM.

As for `FC(F)(F)c1cccc(Nc2nc3[nH]ncc3c(=S)s2)c1`, the IC50 was found to be 2.78 µM.

Consider `S=c1sc(Nc2ccc(Br)cc2)nc2[nH]ncc12`, for which the IC50 was 6.06 µM.

In the case of `S=c1sc(Nc2ccc(Cl)cc2)nc2[nH]ncc12`, the IC50 was found to be 21.3 µM.

Take `S=c1sc(Nc2cccc(Cl)c2)nc2[nH]ncc12`: the IC50 was 15.3 µM.

Consider `S=c1sc(Nc2ccccc2Cl)nc2[nH]ncc12`, for which the IC50 amounted to 43.1 µM.

As to `CCNc1nc2[nH]ncc2c(=S)s1`, the IC50 came to 10.7 µM.

Turning to `CCCCNc1nc2[nH]ncc2c(=S)s1`, the IC50 stood at 2.67 µM.

In the case of `S=c1sc(NCc2ccccc2)nc2[nH]ncc12`, the IC50 is 2.84 µM.

`S=c1sc(NC2CCCCC2)nc2[nH]ncc12`: the IC50 came to 0.64 µM.

Still in this assay, the particulars now being: read-out: pIC50 (converted).
Take `CCC(C)n1c(=O)[nH]c2cc(C)nn2c1=O` (configuration not stated): the IC50 is 2.6 µM.

Regarding `CCn1c(=O)[nH]c2cc(C)nn2c1=O`, the IC50 is 32 µM.

Regarding `CCCCn1c(=O)[nH]c2cc(C)nn2c1=O`, the IC50 is 6.61 µM.

In the case of `Cc1cc2[nH]c(=O)n(Cc3ccccc3)c(=O)n2n1`, the IC50 is 42 µM.

For `Cc1cc2[nH]c(=O)n(C3CCCCC3)c(=O)n2n1`, the IC50 was 0.32 µM.

Take `Cc1cc2[nH]c(=O)n(-c3ccccc3)c(=O)n2n1`: the IC50 is 169 µM.

In the case of `CC/N=c1/sc(=O)[nH]c2cc(C)nn12`, the IC50 was 2.9 µM.

Consider `CCCC/N=c1/sc(=O)[nH]c2cc(C)nn12`, for which the IC50 is 0.57 µM.

For the molecule `Cc1cc2[nH]c(=O)s/c(=N/Cc3ccccc3)n2n1`, the IC50 was 18 µM.

For `Cc1cc2[nH]c(=O)s/c(=N/C3CCCCC3)n2n1`, the IC50 was 0.21 µM.

Take `CN(C)C(=O)Nc1ccc(Cl)c(Cl)c1` [DCMU]: the IC50 is 0.27 µM.

Take `CN(C)c1nc(=O)n(C2CCCCC2)c(=O)n1C` [HEXAZINONE]: the IC50 is 0.11 µM.

Regarding `O=c1[nH]c2c(c(=O)n1C1CCCCC1)CCC2` [LENACIL], the IC50 was 0.08 µM.

The record behind these values is ChEMBL document CHEMBL3045623, “Pyrazole derivatives as photosynthetic electron transport inhibitors: new leads and structure-activity relationship” (J Agric Food Chem, 2005).
